# Data from patent EP1263458B1, “LOWERING SERUM CHOLESTEROL” (NOVO NORDISK A/S, priority 2000, dated 2005).
# System: Wistar rats subjected to neonatal monosodium glutamate treatment (MSG)
# Assay: Acute and subchronic anorectic effects, plasma triglycerides, model of hypothalamic obesity (MSG rats)
# Assay type: in vivo
# Details: 100 µg/kg s.c. twice daily, rat group not specified
# Method: Solutions were always made fresh approximately 1 hour prior to use and stored at 4°C in sterile tubes.
# [1] = normalised within few days of treatment
smiles,measurement,setting,value
"CCCCCCCCCCCCCCCC(=O)N[C@@H](CCC(=O)NCCCC[C@H](NC(=O)[C@H](C)NC(=O)[C@H](C)NC(=O)[C@H](CCC(N)=O)NC(=O)CNC(=O)[C@H](CCC(=O)O)NC(=O)[C@H](CC(C)C)NC(=O)[C@H](Cc1ccc(O)cc1)NC(=O)[C@H](CO)NC(=O)[C@H](CO)NC(=O)[C@@H](NC(=O)[C@H](CC(=O)O)NC(=O)[C@H](CO)NC(=O)[C@@H](NC(=O)[C@H](Cc1ccccc1)NC(=O)[C@@H](NC(=O)CNC(=O)[C@H](CCC(=O)O)NC(=O)[C@H](C)NC(=O)[C@@H](N)Cc1cnc[nH]1)[C@@H](C)O)[C@@H](C)O)C(C)C)C(=O)N[C@@H](CCC(=O)O)C(=O)N[C@@H](Cc1ccccc1)C(=O)N[C@H](C(=O)N[C@@H](C)C(=O)N[C@@H](Cc1c[nH]c2ccccc12)C(=O)N[C@@H](CC(C)C)C(=O)N[C@H](C(=O)N[C@@H](CCCNC(=N)N)C(=O)NCC(=O)N[C@@H](CCCNC(=N)N)C(=O)NCC(=O)O)C(C)C)[C@@H](C)CC)C(=O)O [GLP1, Arg^34, Lys^26(N^ε-(γ-Glu(N^α-hexadecanoyl)))-GLP-1(7-37)]",diuresis,[1],increases
same,water intake,[1],Initial decreases
same,plasma parameters of renal function,throughout the experiment,remained normal
